These are literature values, as cited in US20020111317A1, “Sixteen-membered macrolide compounds” (priority 2000, published 2002).

Each structure is given as a SMILES string.

For data set [1], the target named is wildtype ribosomes. The note with it: read-out: Kd using wildtype ribosomes.
Data set [2] concerns the target methylated ribosome (e.g., A2058G mutant). To be noted: read-out: Kd using methylated ribosome.

For `CC[C@H]1OC(=O)[C@H](C)[C@@H](O[C@H]2C[C@@](C)(OC)[C@@H](O)[C@H](C)O2)[C@H](C)[C@@H](O[C@@H]2O[C@H](C)C[C@H](N(C)C)[C@H]2O)[C@](C)(O)C[C@@H](C)C(=O)[C@H](C)[C@@H](O)[C@]1(C)O` [erythromycin A], the Kd is about 14 nM in data set [1] and about 190000 nM in data set [2].
`CC[C@H]1OC(=O)[C@H](C)C(=O)[C@H](C)[C@@H](O[C@@H]2O[C@H](C)C[C@H](N(C)C)[C@H]2O)[C@](C)(OC)C[C@@H](C)C(=O)[C@H](C)[C@H]2N(CCCCn3cnc(-c4cccnc4)c3)C(=O)O[C@]12C` [telithromycin]: the results for the Kd in data set [1] and in data set [2] were about 1.3 nM and about 58 nM, respectively.
